Experimental findings from ChEMBL document CHEMBL1201862, “PubChem BioAssay data set” (2004) are described below.

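How tested: cells in 96-well plates exposed to compound for 48 hours at five concentrations. At the GI50, growth is halved.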 Calls of active or inactive are those of the source. Cut-off read from the data, not from the text of the source: active = GI50 up to about 1.1 µM and inactive = higher.

Test systems include 786-0; A549; ACHN; CCRF-CEM; DU-145; HCC 2998; HT-29; K562; M14; MCF7; NCI-H226; NCI-H23; NCI-H460; NCI-H522; OVCAR-4; PC-3; SK-MEL-2; SR; T47D; UACC-257.
Assay in all cases: NCI tumour cell line growth inhibition, 48 h

As for `CC1=C[C@@H]2[C@@H](CC(CO)=C[C@H]3[C@@H]4C(C)(C)[C@]4(OCC(C)C)[C@H](OCC(C)C)[C@@H](C)[C@]23O)C1=O`, the GI50 with 786-0 is 1470 nM (inactive); with A549, 578 nM (active); in the experiment with ACHN, 1230 nM (inactive); in the experiment on CCRF-CEM, 741 nM (active); in the experiment on DU-145, 3200 nM (inactive); with HCC 2998, 574 nM (active). The GI50 is 1210 nM (inactive) with HT-29; 137 nM (active) with K562; 1510 nM (inactive) in the experiment with M14; 2560 nM (inactive) with MCF7; 1360 nM (inactive) in the experiment on NCI-H226; 1910 nM (inactive) in the experiment on NCI-H23. Moreover, the GI50 with NCI-H460 was 465 nM (active); in the experiment with NCI-H522, 2200 nM (inactive); in the experiment with OVCAR-4 it was 4280 nM (inactive); in the experiment on PC-3, 1490 nM (inactive); in the experiment with SK-MEL-2, 2100 nM (inactive); with SR, 1140 nM (inactive). For the same molecule, the values for the GI50 with T47D and with UACC-257 were 2160 nM (inactive) and 1620 nM (inactive), respectively.
